Experimental data reported in patent publication US20240335395A1, “COMPOSITIONS AND METHODS FOR PREVENTING AND/OR TREATING DISEASE ASSOCIATED WITH IL-23 EXPRESSION” (ALLSPIM, priority 2021, published 2024).

Columns and labels:
Assay type in all cases: cell-based, human
IL-23 = IL-23 production (ELISA of supernatant) in LPS-stimulated THP-1 cell culture, Examples 1 and 8
Experimental: (§1) The THP-1 cell line (TIB-202) was obtained from the American Type Culture Collection (ATCC, USA), grown in RPMI 1640 culture medium (Gibco) supplemented with 10% fetal bovine serum (Gibco, UK), 50 U/mL penicillin-streptomycin (Gibco), and 0.05 mM 2-Mercaptoethanol (Gibco). Cultured cells were plated into culture plates in appropriate volumes with a cell density of 500,000 cells/mL.
PCR was performed in duplicate using SYBR Green qPCR master mix (Takara Biomedical Technology Co., Ltd, Dalian, China) on an ABI 7500 Real-Time PCR System (Thermo, USA). The cycling program was as follows: denaturation at 95° C. for 15 s, 40 cycles of 95° C. for 15 s and extension at 60° C. for 60 s, followed by melt curve generation. The ΔΔCT method was used to quantify relative mRNA levels as described in User Bulletin #2 for the ABI PRISM 7700 Sequence Detection System (Applied Biosystems, 2001). The primer sequences used in this study are 5′-[…]-3′ (forward), 5′-[…]-3′ (reverse) for human IL-23p19 (SEQ ID NOs: 4 and 5, respectively); and 5′-ACAGTCCATGCCATCACTG-3′ (forward) and 5′-AGTAGAGGCAGGGATGATG-3′ for human GAPDH as a reference (SEQ ID NOs: 6 and 7, respectively). 24 hours after culture and treatments, supernatants were collected and IL-23 levels measured using the IL-23 Human Uncoated ELISA Kit (ThermoFisher Scientific Inc., USA) according to the manufacturer's instructions. A Varioskan LUX microplate reader (Thermo Fisher, USA) was used for the assay and 4-parameter logistic regression was used for data analysis. Two duplicates per sample were performed and results were averaged.
The anti-IL-23 activity of 2,4-D was compared with the commercially prescribed nonsteroidal anti-inflammatory drugs (NSAIDs:[…], Ibuprofen, and Aspirin) in the LPS-stimulated THP-1 cell culture system described above (Example 1)).

[1] = tested on: IL-17/IL-23 and TNF signaling pathway-associated cytokine genes and chemokine genes; assay: Transcription of IL-17/IL-23 and TNF signature genes in LPS-stimulated THP-1 cells (qPCR); settings: 2 h; 2,4-D 5-20 μM, DEX 20-80 ng/ml
Experimental: Sample Collection and Preparation. THP-1 cells, a human leukemia monocyte-derived cell line, have been widely used as a model to study the modulation of the immune response and the function of monocytes and monocyte-derived macrophages. Here, lipopolysaccharide (LPS)-stimulated THP-1 cells were used as a model to study the cytokine storm in vitro (Chanput et al., 2014). THP-1 cells (purchased from American Type Culture Collection, Rockville, MD) were grown in RPMI 1640 culture medium (Gibco) supplemented with 10% fetal bovine serum (FBS) (Gibco, UK), 0.05 mM 2-mercaptoethanol, and 1% penicillin/streptomycin (Invitrogen) at 37° C. in 5% CO2 in a humidified incubator. Cultured cells were plated into culture plates in appropriate volumes with a cell density of 5×10^5 cells/ml. 2,4-D was purchased from Wuhan ChemFaces Biochemical Co., Ltd (Hubei, China) and tested for cytotoxicity in THP-1 cells overnight using a commercial MTT Cell Proliferation and Cytotoxicity Assay Kit (Beyotime, Shanghai, China). […]
Real-Time Quantitative PCR. Real-time quantitative PCR was performed in triplicate using the TB Green qPCR master mix (Takara Biomedical Technology Co., Ltd, Dalian, China) on an ABI 7500 Real-Time PCR System (Thermo, USA). […] The ΔΔCT method was used to quantify relative mRNA levels as described above in Example 1 (Applied Biosystems). Data are expressed as mean±SD. […]

IL-23 gene (IL-23p19) = assay: IL-23 gene expression (RT-qPCR) in LPS-stimulated THP-1 cell culture; settings: THP-1, LPS 10 ng/ml, 2 h
Experimental: as §1
At two hours after stimulation with LPS (10 ng/ml) in the presence or not of 2,4-D at increasing concentrations, THP-1 cells from each experimental condition were directly lysed using TRIzol reagent (Invitrogen, USA) followed by RNA extraction according to the manufacturer's instructions. Finally, RNA was dissolved in 10 μL diethyl pyrocarbonate (DEPC)-treated water, quantified on a NanoDrop 2000 spectrophotometer (Thermo Scientific Inc., USA), and reverse-transcribed using the Super Script III First-Strand Synthesis System for RT-PCR kit (Thermo Scientific, USA) according to the manufacturer's instructions.
PCR was performed in duplicate using SYBR Green qPCR master mix (Takara Biomedical Technology Co., Ltd, Dalian, China) on an ABI 7500 Real-Time PCR System (Thermo, USA). […] The ΔΔCT method was used to quantify relative mRNA levels as described in User Bulletin #2 for the ABI PRISM 7700 Sequence Detection System (Applied Biosystems, 2001). […]

COc1cc(O)c(OC)c(O)c1C(=O)/C=C/c1ccccc1 [2,4-D, 2′,4′-dihydroxy-3′,6′-dimethoxychalcone]
decrease of IL-23 detected in culture supernatant (IL-23; LPS-stimulated THP-1, 24 h): more than 90%
inhibition in IL-23 production/release in supernatant (IL-23; LPS-stimulated THP-1, Example 8): 5 to 10 fold
concentration of maximum inhibition of IL-23 cytokine production (IL-23; LPS-stimulated THP-1 cell culture): 20 µg/mL
suppression of transcription of IL-17/IL-23 and TNF signatures [1]: 63-143 fold
IL-23 gene expression (IL-23 gene (IL-23p19)): strongly inhibited
